Columns and labels:
[1] = molecular target: T1, Sodium-dependent dopamine transporter (Rattus norvegicus, UniProt P23977); test: Inhibition of [3H]WIN-35428l binding to Dopamine transporter
[2] = molecular target: Sodium-dependent serotonin transporter (Rattus norvegicus) (UniProt P31652); test: Ratio of IC50(5-HT) to the IC50(DA)
[3] = molecular target: T2, Norepinephrine transporter (Rattus norvegicus, UniProt Q9WTR4); test: Inhibition of [3H]mazindol binding to Norepinephrine transporter
[4] = molecular target: Sodium-dependent serotonin transporter (Rattus norvegicus, UniProt P31652); test: Inhibition of [3H]paroxetine binding to Serotonin transporter
Sodium-dependent serotonin transporter, sequence (P31652 whole entry): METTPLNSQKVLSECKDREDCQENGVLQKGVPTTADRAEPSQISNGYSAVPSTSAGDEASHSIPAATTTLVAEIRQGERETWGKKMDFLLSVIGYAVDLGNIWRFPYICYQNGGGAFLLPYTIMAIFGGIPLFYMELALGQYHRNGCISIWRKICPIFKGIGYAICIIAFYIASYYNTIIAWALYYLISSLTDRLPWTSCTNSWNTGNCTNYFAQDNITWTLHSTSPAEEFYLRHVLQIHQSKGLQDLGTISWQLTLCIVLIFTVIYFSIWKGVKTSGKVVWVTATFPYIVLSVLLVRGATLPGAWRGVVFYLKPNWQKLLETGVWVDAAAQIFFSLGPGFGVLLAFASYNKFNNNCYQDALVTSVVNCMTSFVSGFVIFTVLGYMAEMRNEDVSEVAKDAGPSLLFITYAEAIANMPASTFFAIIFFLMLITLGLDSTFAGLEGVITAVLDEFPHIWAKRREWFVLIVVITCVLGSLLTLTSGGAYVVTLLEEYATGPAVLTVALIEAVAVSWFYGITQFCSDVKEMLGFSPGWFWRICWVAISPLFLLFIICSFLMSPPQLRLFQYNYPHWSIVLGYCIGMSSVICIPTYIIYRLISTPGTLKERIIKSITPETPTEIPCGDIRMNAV

[5] = molecular target: T1, Sodium-dependent dopamine transporter; test: Compound was evaluated for the inhibition of [3H]WIN-35428l binding to dopamine transporter
[6] = molecular target: T2, Norepinephrine transporter; test: Compound was evaluated for the inhibition of [3H]mazindol binding to norepinephrine (NE) transporter

Sodium-dependent serotonin transporter (Rattus norvegicus), sequence (P31652 whole entry): as above
T1 sequence (P23977 whole entry): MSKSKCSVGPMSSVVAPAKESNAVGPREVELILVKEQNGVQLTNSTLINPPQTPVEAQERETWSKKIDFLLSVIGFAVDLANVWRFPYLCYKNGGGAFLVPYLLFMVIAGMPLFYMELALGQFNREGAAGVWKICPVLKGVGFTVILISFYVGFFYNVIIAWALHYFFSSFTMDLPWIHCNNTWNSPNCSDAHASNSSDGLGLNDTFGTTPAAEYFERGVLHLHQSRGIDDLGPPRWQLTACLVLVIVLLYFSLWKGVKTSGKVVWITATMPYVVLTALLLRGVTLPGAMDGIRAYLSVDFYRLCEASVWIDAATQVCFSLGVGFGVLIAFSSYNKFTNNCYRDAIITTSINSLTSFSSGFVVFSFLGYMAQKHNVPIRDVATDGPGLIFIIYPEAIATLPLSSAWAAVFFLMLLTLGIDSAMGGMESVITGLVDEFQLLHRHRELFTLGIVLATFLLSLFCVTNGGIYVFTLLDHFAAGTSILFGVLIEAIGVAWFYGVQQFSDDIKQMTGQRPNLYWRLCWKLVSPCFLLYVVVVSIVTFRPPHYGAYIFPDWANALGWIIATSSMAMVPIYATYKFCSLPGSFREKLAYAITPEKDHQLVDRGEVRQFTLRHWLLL
T2 sequence (Q9WTR4 whole entry): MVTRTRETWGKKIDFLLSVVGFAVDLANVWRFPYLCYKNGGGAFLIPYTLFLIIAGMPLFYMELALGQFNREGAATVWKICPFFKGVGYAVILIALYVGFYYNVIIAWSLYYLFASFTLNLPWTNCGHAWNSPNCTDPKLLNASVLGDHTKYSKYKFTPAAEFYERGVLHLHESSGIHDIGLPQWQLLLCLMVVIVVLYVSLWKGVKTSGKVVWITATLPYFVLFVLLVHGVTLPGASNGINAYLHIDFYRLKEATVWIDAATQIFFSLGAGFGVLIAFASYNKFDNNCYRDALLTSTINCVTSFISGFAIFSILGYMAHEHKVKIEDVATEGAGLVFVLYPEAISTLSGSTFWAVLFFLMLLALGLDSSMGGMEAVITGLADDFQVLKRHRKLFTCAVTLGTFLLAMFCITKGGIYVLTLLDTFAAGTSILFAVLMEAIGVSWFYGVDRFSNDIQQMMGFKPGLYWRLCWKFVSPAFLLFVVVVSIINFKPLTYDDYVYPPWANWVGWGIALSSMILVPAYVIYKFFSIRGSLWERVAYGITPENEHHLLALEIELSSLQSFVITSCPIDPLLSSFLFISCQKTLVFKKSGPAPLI

Row | Compound | IC50 [1] | Ratio [2] | IC50 [3] | IC50 [4] | IC50 [5] | IC50 [6]
1 | CC(C)OC(=O)[C@@H]1C2CC[C@H](C[C@@H]1c1ccc(I)cc1)N2C | 0.00043 µM | 721 | 0.864 µM | 0.31 µM |  | 
2 | CN1C2CC[C@@H]1C[C@H](c1ccc(Cl)cc1)[C@@H]2C(=O)Oc1ccccc1 | 0.00199 µM | 1170 | 4.57 µM | 2.34 µM |  | 
3 | COC(=O)[C@@H]1C2CC[C@H](C[C@@H]1c1ccccc1)N2C |  |  | 2.08 µM |  |  | 
4 | CC(C)OC(=O)[C@@H]1C2CC[C@H](C[C@@H]1c1ccc(Cl)cc1)N2C | 0.00141 µM | 996 | 2.15 µM | 1.4 µM |  | 
5 | COC(=O)[C@@H]1C2CC[C@H](C[C@@H]1c1ccc(I)cc1)N2C | 0.00126 µM | 3.3 | 0.0346 µM | 0.0042 µM |  | 
6 | CCCOC(=O)[C@@H]1C2CC[C@H](C[C@@H]1OC(=O)c1ccccc1)N2C |  |  |  | 4.13 µM | 0.191 µM | 15.8 µM
7 | COC(=O)C1C2CC[C@H](C[C@@H]1c1ccc(Cl)cc1)N2C (some centres undefined) |  |  |  | 0.0445 µM |  | 
8 | CC(C)OC(=O)[C@@H]1C2CC[C@H](C[C@@H]1OC(=O)c1ccccc1)N2C |  | 122 | 23.5 µM | 25.7 µM |  | 
9 | CN1C2CC[C@@H]1C[C@H](OC(=O)c1ccccc1)[C@@H]2C(=O)Oc1ccccc1 | 0.112 µM | 512 | 37.4 µM | 57.4 µM |  | 
10 | CCOC(=O)[C@@H]1C2CC[C@H](C[C@@H]1OC(=O)c1ccccc1)N2C | 0.13 µM | 70 | 26.8 µM | 9.06 µM |  | 
11 | CN1C2CC[C@@H]1C[C@H](c1ccc(I)cc1)[C@@H]2C(=O)Oc1ccccc1 | 0.00151 µM | 216 | 18.3 µM | 0.326 µM |  | 
12 | COC(=O)[C@H]1[C@@H](c2ccc(F)cc2)C[C@H]2CC[C@H]1N2C |  |  | 1.24 µM | 0.759 µM |  | 
13 | Cc1ccc([C@H]2C[C@H]3CCC([C@H]2C(=O)OC(C)C)N3C)cc1 | 0.00529 µM | 1210 | 4.3 µM | 6.41 µM |  | 
14 | Cc1ccc([C@H]2C[C@H]3CCC([C@H]2C(=O)Oc2ccccc2)N3C)cc1 | 0.00327 µM | 9070 | 10.8 µM | 29.7 µM |  | 
15 | COC(=O)[C@@H]1C2CC[C@H](C[C@@H]1c1ccc(C)cc1)N2C | 0.00171 µM |  |  |  |  | 
16 | CN1C2CC[C@@H]1C[C@H](OC(=O)c1ccccc1)[C@@H]2C(=O)OCCCc1ccccc1 |  |  |  | 0.374 µM |  | 25.1 µM

Reference: ChEMBL document CHEMBL1125471, “Isopropyl and phenyl esters of 3 beta-(4-substituted phenyl)tropan-2 beta-carboxylic acids. Potent and selective compounds for the dopamine transporter” (J Med Chem, 1992)
